Test results as given in patent publication US20240228570A9, “PLATFORM TECHNOLOGY FOR TREATMENT OF INFLAMMATORY, IMMUNOLOGICAL AND/OR AUTOIMMUNOLOGICAL DISEASES” (ellennbe GmbH, priority 2021, published 2024).

Experiments:
perfusion of the skin = conditions: cited from earlier work
[1] = Adverse side effects, intolerances, incompatibilities in treated subjects and patients; assay type: in vivo, human; conditions: for adverse effects of earlier or basic treatment (patient history): Patient 7, rheumatoid arthritis/synovitis; for earlier treatment with TNF-α inhibitors (patient history): Patient 12, ankylosing spondylitis
[2] = test system: inflammatory disease, immunological disease and/or autoimmunological disease; test: Treatment of patients: condition as stated by patient and physician (pain, fatigue, daily life, duration of effect, relapses); assay type: in vivo, human
Protocol: All patients treated in the following Inventive Examples, Reference Examples and Comparative Examples were selected solely based on their diagnosis without performing a preselection in view of other parameters.
Annotation to the Tables 8A and B and 9 to 10: Patients were usually examined and treated in the same session. The success of the treatment or the effect thereof was then determined in the following session, usually one week later, and the next treatment performed as indicated in the tables.

## COC(=O)c1cccnc1 [MN, methyl nicotinate]
Perfusion of the skin; 50 μl of 20 mmol/l MN topical, healthy subjects, Laser Speckle Contrast Imager
  perfusion response of the skin: reproducible perfusion response
Perfusion of the skin; topical application of MN, increase occurs a few minutes after application
  time course of the perfusion increase: reaches a stable plateau phase after five minutes

## CN(Cc1cnc2nc(N)nc(N)c2n1)c1ccc(C(=O)N[C@@H](CCC(=O)O)C(=O)O)cc1 [MTX, methotrexate]
[1]
  adverse effects of earlier or basic treatment (patient history): severe adverse effects (tendency to fibrosis in the lungs and sinusitis)

## CCN(CCO)CCCC(C)Nc1ccnc2cc(Cl)ccc12.O=S(=O)(O)O (stereo not shown) [Quensyl®, hydroxychloroquin sulphate]
[1]
  adverse effects of earlier or basic treatment (patient history): can cause irreversible eye damage with long-term use

## CC[C@@H]1CN(C(=O)NCC(F)(F)F)C[C@@H]1c1cnc2cnc3[nH]ccc3n12 [upadacitinib]
[1]
  adverse effects of earlier or basic treatment (patient history): severe adverse effects (tendency to fibrosis in the lungs and sinusitis)

## Enbrel®
[1]
  earlier treatment with TNF-α inhibitors (patient history): accompanied by strong adverse side effects and hence, not successful

## Remicade®: TNF-α inhibitor
[1]
  earlier treatment with TNF-α inhibitors (patient history): accompanied by strong adverse side effects and hence, not successful

## Simponi®: biologic, golimumab
[2]; Patient 11, ankylosing spondylitis, within half a year the biologics lost their effect
  effect of earlier treatment with biologics (patient's report): had little effect from the outset

## Symponi®: TNF-α inhibitor
[1]
  earlier treatment with TNF-α inhibitors (patient history): accompanied by strong adverse side effects and hence, not successful

## tocilizumab: IL-6 inhibitor
[2]; Patient 7, rheumatoid arthritis/synovitis, before or beside the treatment of IE 7
  effectiveness of earlier or basic treatment (patient history): only partially efficient
